Assay results as given in patent publication US8389482B2, “Short peptides useful for treatment of ischemia/reperfusion injury and other tissue damage conditions associated with nitric oxide and its reactive species” (New York University, priority 2007, dated 2013).
Residues, ends and D or L forms follow the SMILES beside them.

Columns and labels:
[1] = test system: HeLa cells; assay: HeLa cell survival upon NO/ONOO- exposure, MTS-based assay; conditions: 20 μM peptide vs 5 mM cysteine
Description: The ability of the L-CEFH peptide (Cys-Glu-Phe-His; SEQ ID NO: 1) to reduce cell death caused by nitric oxide (NO) and peroxynitrite (ONOO^−) was tested in cell culture. Following treatment with NO/ONOO^−, HeLa cells were incubated with either a control buffer, 5 mM cysteine, or 20 μM L-CEFH peptide for 40 minutes. The percentage of cells surviving was determined by a MTS-based assay (available from Promega, Madison, Wis.).

[2] = test system: peroxynitrite (ONOO)-nitrated albumin; assay: In vitro denitration of peroxynitrite-nitrated albumin, dot-immunoblotting with antibodies against 3-NT; format: biochemical; conditions: 20 μM peptide, 10 mM Tris HCl pH 7.2, 25° C., after 10 minutes
From the text: Several groups have previously reported an in vivo denitration phenomenon (e.g., Kamisaki et al (1998) Proc Natl Acad Sci USA 95: 11584-11589; Aulak et al (2004) Am J Physiol Heart Circ Physiol 286: H30-H38). However, they tried to isolate denitration activity using pure 3-NT and failed. The present inventors have hypothesized that the stability of pure 3-NT is much higher than the stability of 3-NT incorporated in a protein and used ONOO-nitrated albumin as the substrate for detecting denitration activity.
To test the ability of L-CEFH peptide (Cys-Glu-Phe-His; SEQ ID NO: 1) to mediate 3-NT denitration in vitro, 20 μM CEFH peptide solution containing 10 mM Tris HCl pH 7.2 was added to albumin previously nitrated by peroxynitrite (ONOO^−). Denitration of the peroxynitrite (ONOO)-nitrated albumin following 0, 3, or 10 minutes of incubation with L-CEFH peptide was then visualized by dot-immunoblotting with antibodies against 3-NT.

[3] = test system: 3-nitrotyrosine (3-NT) in myocardial tissue; assay: 3-NT accumulation in heart tissue (area at risk) in a rat model of MI, dot-immunoblotting with anti-3-NT antibodies; format: in vivo; conditions: 0.7 mg/kg i.v. 5 minutes after beginning of reperfusion
Description: (§1) Myocardial ischemia (MI) was produced in anaesthetized adult male Wistar rats (300-350 grams) under controlled ventilation. After thoracotomy at the fourth intercostal space, the heart was exteriorized and a 6-0 silk ligature was passed under the left coronary artery with a needle. After 30 minutes of MI, the ligature was released and the myocardium was reperfused for 1 hour. Rats were randomized 5 minutes after the beginning of reperfusion to receive either vehicle (control, n=6) or L-CEFH peptide (0.7 mg/kg; n=9) i.v. The extent of MI/R injury, or infarct size, was determined by calculating the ratio of the area of necrosis (NA) to the area at risk (AR). Accumulation of 3-NT in the tested heart tissue corresponding to the area at risk was analyzed by Western dot-immunoblotting of total protein (extracted from the area at risk) with antibodies against 3-NT.

[4] = test system: rat model of myocardial infarction; assay: Myocardial ischemia-reperfusion (MI/R) injury in a rat model of myocardial infarction, infarct size NA/AR; format: in vivo
Description: as §1
Rat model of myocardial infarction was generated as disclosed in Example 3, above. 0, 0.02, 0.05, 0.1, 0.14, 0.35, and 0.7 mg/kg of D-CEFH peptide (N≦4 for each concentration) were administered i.v. The extent of MI/R injury, or infarct size, was determined by calculating the ratio of the area of necrosis (NA) to the area at risk (AR).

[5] = test system: myocardial tissue 3-NT; conditions: cited from earlier work
[6] = test system: myocardial ischemia (MI) in rats; conditions: cited from earlier work
[7] = 5 mg/kg i.v., infused 1 minute prior to ischemia

## N[C@@H](CS)C(=O)N[C@@H](CCC(=O)O)C(=O)N[C@@H](Cc1ccccc1)C(=O)N[C@@H](Cc1c[nH]cn1)C(=O)O [L-CEFH, Cys-Glu-Phe-His] (H-CEFH-OH; N-terminus and C-terminus assumed)
[1]
  times lower concentration than cysteine giving equivalent efficacy: 250 times
[2]
  denitration of peroxynitrite (ONOO)-nitrated albumin: > 90%
[3]
  reduction of 3-NT accumulation as compared to the control: about 70%
[4]; 0.7 mg/kg i.v. 5 minutes after beginning of reperfusion, 30 min MI, 1 hour reperfusion
  decrease in the infarct size (NA/AR) as compared to the control: 3-5 fold
[4]; i.v., rat model of MI
  dose producing maximal effect in preventing MI/R injury: 0.7 mg/kg

## COC(=O)[C@@H](N)CCCNC(=N)N[N+](=O)[O-] [L-NAME]
[5]; 50 mg/kg i.p.
  3-NT: reduction
[6]; 50 mg/kg i.p.
  infarct size: reduction

## O=NO [sodium nitrite]
[5]; [7]
  myocardial tissue 3-NT accumulation compared with saline treated controls: significant expansion
[6]; [7]
  I/R infarct size compared with saline treated controls: significant expansion

## Cys-Glu-Phe-His [D-CEFH]
[4]; 0.05 mg/kg vs 0.7 mg/kg, i.v.
  fold lower concentration than L-CEFH for the same effect in preventing MI/R injury: 14 fold
[4]; i.v., rat model of MI
  activity in preventing MI/R injury as compared to L-CEFH: superior activity
  dose producing maximal effect in preventing MI/R injury: 0.1 mg/kg
  dose producing the same effect as the maximal effect of L-CEFH (0.7 mg/kg): 0.05 mg/kg
